Data published in PubChem BioAssay AID1919007 (Molecular Pharmacology Branch, DTP, NCI, 2023).

System: A498 complex spheroids with HUVEC/MSC, growth
Experiment: Anticancer human tumor A498 cell line growth inhibition [AhR];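 note: seven day exposure starting three days after spheroid seeding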;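 for viability, T/C: luminescence signal used as a surrogate for viable cells; luminescence viability scaled so 100% equals DMSO vehicle wells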
Details: for viability, T/C: stronger effect = lower value
Excerpt: Multicellular complex tumor spheroid response to aryl hydrocarbon receptor antagonists in combination with a variety of drugs and investigational agents in selected tumor cell lines
The current study was undertaken to assess response to aryl hydrocarbon receptor antagonists in combination with standard-of-care drugs and investigational agents in solid tumor complex spheroid models. Complex spheroids include a stromal component modeled by human endothelial cells (HUVEC) and fibroblasts modeled by human mesenchymal stem cells (MSCs). The concentration ranges selected for each drug and investigational agent were based upon clinically achievable concentrations if the clinical Cmax of the agent was known.
Compounds. The drugs and investigational agents: BAY 2416964 (NSC825713), GNF351 (NSC835774), CH-223191 (NSC835775), CPI-455 (NSC825282), aza-TdCyd (NSC777586), decitabine (NSC127716), belinostat (NSC758774), entinostat (NSC756642), pevonedistat (NSC761192), tazemetostat (NSC777109), talazoparib (NSC765396), olaparib (NSC753686), selinexor (NSC780203), nedisertib (M3814, NSC802822), bortezomib (NSC756655), venetoclax (NSC766270), doxorubicin (NSC123127), elimusertib (BAY189344, NSC800525), ceralasertib (AZD6738, NSC777638), TAK-243 (NSC785004), alisertib (NSC759677), etoposide (NSC141540), topotecan (NSC609699), eribulin (NSC707389), gemcitabine (NSC613327), carboplatin (NSC241240), cisplatin (NSC119875), and SN-38 (NSC673596) were obtained from the National Cancer Institute (NCI) Developmental Therapeutics Program Chemical Repository (32). The FDA-approved anticancer drug set is available from the Developmental Therapeutics Program at https://dtp.cancer.gov/organization/dscb/obtaining/available plates.htm. […] The stock solutions were prepared in dimethyl sulfoxide (DMSO, Sigma-Aldrich, St. Louis, MO, cat. D2650), except for the platinum compounds which were prepared in saline (Quality Biological, Gaithersburg, MD, cat. 114-055-101), at 800-fold the tested concentration and stored at -70 degrees C prior to their use. All drugs and investigational agents were tested over a range starting from a high concentration at or near the clinical Cmax and decreasing in half-log increments. If the clinical Cmax for an agent had not been determined, the highest concentration tested was 10 microM (Table 1).
Cell Culture. All cells were maintained in an incubator at 37 degrees C and 5% CO2 with 95% humidity. The PDC lines were cultured according to standard operating procedures established by the NCI PDMR (https://pdmr.cancer.gov). Briefly, all PDCs were thawed and cultured in Matrigel-coated flasks prepared with a working solution of 1X Ham's F-12 nutrient mix, without supplementation (Invitrogen, Waltham, MA, cat. 11765054), 100 U/mL penicillin-streptomycin (Invitrogen, cat. 15140122), and 2.5% Matrigel (Corning Inc., Corning, NY, cat. 354248) for the first three passages. All PDCs were cultured in complete DMEM/F-12 media containing advanced DMEM/F-12 (Invitrogen, cat. 12634028), 4.9% defined fetal bovine serum, heat inactivated (HyClone Laboratories Inc., Logan, UT, cat. SH30070.03HI), 389 ng/mL hydrocortisone (Sigma-Aldrich, cat. H4001), 9.7 ng/mL human EGF recombinant protein (Invitrogen, cat. PHG0313), 23.4 microg/mL adenine (Sigma-Aldrich, cat. A2786), 97.3 U/mL penicillin-streptomycin (Invitrogen, cat. 15140122), 1.9 mM L-glutamine (Invitrogen, cat. 25030081), and 9.7 microM Y-27632 dihydrochloride (Tocris Bioscience, Bristol, United Kingdom, cat. 1254). The PDCs were cultured in complete DMEM/F12 media without 10 microM Y-27632 dihydrochloride for at least two passages prior to the screen. The established cell lines NCI-H1341 and […] were cultured in DMEM/F-12, HEPES (Invitrogen, cat. 11330032), 5% defined fetal bovine serum (HyClone Laboratories Inc., cat. SH30070.03), ITS premix universal culture supplement [insulin (5 microg/mL), transferrin (5 microg/mL), and selenious acid (5 ng/mL)] […]

[1] = curve of first compound, second compound 0.1 µM
[2] = curve of first compound, second compound 0.316 µM
[3] = curve of first compound, second compound 1 µM
[4] = curve of first compound, second compound 3.16 µM
[5] = curve of first compound, second compound 10 µM
[6] = second compound 0.1 µM, first compound 0.0316 µM
[7] = second compound 0.1 µM, first compound 0.1 µM
[8] = second compound 0.1 µM, first compound 0.316 µM
[9] = second compound 0.1 µM, first compound 1 µM
[10] = second compound 0.1 µM, first compound 3.16 µM
[11] = second compound 0.1 µM, first compound 10 µM
[12] = second compound 0.316 µM, first compound 0.0316 µM
[13] = second compound 0.316 µM, first compound 0.1 µM
[14] = second compound 0.316 µM, first compound 0.316 µM
[15] = second compound 0.316 µM, first compound 1 µM
[16] = second compound 0.316 µM, first compound 3.16 µM
[17] = second compound 0.316 µM, first compound 10 µM
[18] = second compound 1 µM, first compound 0.0316 µM
[19] = second compound 1 µM, first compound 0.1 µM
[20] = second compound 1 µM, first compound 0.316 µM
[21] = second compound 1 µM, first compound 1 µM
[22] = second compound 1 µM, first compound 3.16 µM
[23] = second compound 1 µM, first compound 10 µM
[24] = second compound 3.16 µM, first compound 0.0316 µM
[25] = second compound 3.16 µM, first compound 0.1 µM
[26] = second compound 3.16 µM, first compound 0.316 µM
[27] = second compound 3.16 µM, first compound 1 µM
[28] = second compound 3.16 µM, first compound 3.16 µM
[29] = second compound 3.16 µM, first compound 10 µM
[30] = second compound 10 µM, first compound 0.0316 µM
[31] = second compound 10 µM, first compound 0.1 µM
[32] = second compound 10 µM, first compound 0.316 µM
[33] = second compound 10 µM, first compound 1 µM
[34] = second compound 10 µM, first compound 3.16 µM
[35] = second compound 10 µM, first compound 10 µM

`Cc1ccccc1N=Nc1ccc(NC(=O)c2ccnn2C)c(C)c1` was tested, and the viability, T/C (compound 0.1 µM) was 88.8% [middle of 20 runs], the viability, T/C (compound 0.316 µM) was 96.8% [middle of 20 runs] and the viability, T/C (compound 1 µM) was 89.2% [middle of 20 runs]. For the same molecule, the viability, T/C (compound 3.16 µM) was 84.9% [middle of 20 runs], the viability, T/C (compound 10 µM) was 86.3% [middle of 20 runs] and the IC50 (compound alone, run of 08/22/2022) was greater than 10000 nM.
With `COc1cc(C2c3cc4c(cc3C(OC3OC5COC(C)OC5C(O)C3O)C3COC(=O)C23)OCO4)cc(OC)c1O` (stereo unspecified) + CC(CO)NC(=O)c1cc(-c2ccc(Cl)cc2)nn(-c2cnn(C)c2)c1=O the IC50 [1] was 2970 nM, the IC50 [2] was 2080 nM and the IC50 [3] was 1560 nM. The IC50 [4] was 1080 nM, the IC50 [5] was 400 nM and the viability, T/C [6] was 74.1%. The viability, T/C [7] was 81.2%, the viability, T/C [8] was 69.4% and the viability, T/C [9] was 57.7%. It also gave a viability, T/C [10] of 52.5%, a viability, T/C [11] of 42.2% and a viability, T/C [12] of 74.2%. For the same molecule, the viability, T/C [13] was 73.1%, the viability, T/C [14] was 68% and the viability, T/C [15] was 52.9%. The viability, T/C [16] was 49.8%, the viability, T/C [17] was 40.1% and the viability, T/C [18] was 66.7%. The viability, T/C [19] was 77%, the viability, T/C [20] was 71.3% and the viability, T/C [21] was 53.3%. For the same molecule, the viability, T/C [22] was 47.3%, the viability, T/C [23] was 40.3% and the viability, T/C [24] was 64.4%. The viability, T/C [25] was 66.7%, the viability, T/C [26] was 64.5% and the viability, T/C [27] was 50.2%. For the same molecule, the viability, T/C [28] was 41.9%, the viability, T/C [29] was 38.2% and the viability, T/C [30] was 49.3%. The viability, T/C [31] was 57.7%, the viability, T/C [32] was 53.3% and the viability, T/C [33] was 37.9%. For the same molecule, the viability, T/C [34] was 37.3% and the viability, T/C [35] was 30.7%.
In the case of `COc1cccc2c1C(=O)c1c(O)c3c(c(O)c1C2=O)CC(O)(C(=O)CO)CC3OC1CC(N)C(O)C(C)O1` (stereo unspecified) + CC(CO)NC(=O)c1cc(-c2ccc(Cl)cc2)nn(-c2cnn(C)c2)c1=O, the IC50 [1] is reported as 129 nM, the IC50 [2] is reported as 148 nM and the IC50 [3] is reported as 231 nM. The IC50 [4] was 119 nM, the IC50 [5] was less than 31.6 nM and the viability, T/C [6] was 55.1%. It also gave a viability, T/C [7] of 55.6%, a viability, T/C [8] of 37.6% and a viability, T/C [9] of 16.1%. The viability, T/C [10] was 2.16%, the viability, T/C [11] was 0.7% and the viability, T/C [12] was 55%. It also gave a viability, T/C [13] of 53.3%, a viability, T/C [14] of 43.3% and a viability, T/C [15] of 16.4%. For the same molecule, the viability, T/C [16] was 2.65%, the viability, T/C [17] was 0.83% and the viability, T/C [18] was 56.1%. The viability, T/C [19] was 56.2%, the viability, T/C [20] was 47.7% and the viability, T/C [21] was 20.4%. For the same molecule, the viability, T/C [22] was 4.74%, the viability, T/C [23] was 2.49% and the viability, T/C [24] was 52.6%. For the same molecule, the viability, T/C [25] was 49.8%, the viability, T/C [26] was 44.1% and the viability, T/C [27] was 11.3%. It also gave a viability, T/C [28] of 3.01%, a viability, T/C [29] of 1.69% and a viability, T/C [30] of 46.6%. For the same molecule, the viability, T/C [31] was 38.5%, the viability, T/C [32] was 31.9% and the viability, T/C [33] was 1.3%. It also gave a viability, T/C [34] of 2.75% and a viability, T/C [35] of 0.83%.
Molecule `Nc1ncn(C2CC(O)C(CO)O2)c(=O)n1` (stereo unspecified) + CC(CO)NC(=O)c1cc(-c2ccc(Cl)cc2)nn(-c2cnn(C)c2)c1=O has an IC50 [1] greater than 1000 nM, an IC50 [2] greater than 1000 nM and an IC50 [3] greater than 1000 nM. For the same molecule, the IC50 [4] was greater than 1000 nM, the IC50 [5] was greater than 1000 nM and the viability, T/C (second compound 0.1 µM, first compound 0.00316 µM) was 96.1%. For the same molecule, the viability, T/C (second compound 0.1 µM, first compound 0.01 µM) was 91.9%, the viability, T/C [6] was 88% and the viability, T/C [7] was 76.1%. It also gave a viability, T/C [8] of 77.8%, a viability, T/C [9] of 66.7% and a viability, T/C (second compound 0.316 µM, first compound 0.00316 µM) of 83.7%. It also gave a viability, T/C (second compound 0.316 µM, first compound 0.01 µM) of 97.2%, a viability, T/C [12] of 86.2% and a viability, T/C [13] of 78.2%. For the same molecule, the viability, T/C [14] was 76%, the viability, T/C [15] was 66.9% and the viability, T/C (second compound 1 µM, first compound 0.00316 µM) was 88.3%. For the same molecule, the viability, T/C (second compound 1 µM, first compound 0.01 µM) was 87%, the viability, T/C [18] was 88.4% and the viability, T/C [19] was 75.1%. It also gave a viability, T/C [20] of 75.4%, a viability, T/C [21] of 67% and a viability, T/C (second compound 3.16 µM, first compound 0.00316 µM) of 79.7%. The viability, T/C (second compound 3.16 µM, first compound 0.01 µM) was 85.7%, the viability, T/C [24] was 84% and the viability, T/C [25] was 70.7%. It also gave a viability, T/C [26] of 67.1%, a viability, T/C [27] of 59.2% and a viability, T/C (second compound 10 µM, first compound 0.00316 µM) of 62%. For the same molecule, the viability, T/C (second compound 10 µM, first compound 0.01 µM) was 67.1%, the viability, T/C [30] was 67% and the viability, T/C [31] was 55.8%. It also gave a viability, T/C [32] of 52.8% and a viability, T/C [33] of 53.6%.
